Reference: patent US4572895A, “Process for preparing an antibiotic complex by culturing actinomyces strain ATCC 39417” (priority 1985, dated 1986)
Values after ≈ are worked out from the molar mass of the structure shown. Like-named read-outs stand apart in the source and are kept apart here.

Tests used:
[1] = system: Staphylococcus aureus 209P; assay: MIC, serial two-fold agar dilution; assay type: cell-based; settings: nutrient agar
[2] = system: Staphylococcus aureus Smith; assay: MIC, serial two-fold agar dilution; assay type: cell-based; settings: nutrient agar
[3] = system: Bacillus subtilis PCI 219; assay: MIC, serial two-fold agar dilution; assay type: cell-based; settings: PCI219, nutrient agar
[4] = system: Micrococcus luteus PCI 1001; assay: MIC, serial two-fold agar dilution; assay type: cell-based; settings: PCI1001, nutrient agar
[5] = system: Micrococcus flavus D12; assay: MIC, serial two-fold agar dilution; assay type: cell-based; settings: nutrient agar
[6] = system: Escherichia coli NIHJ; assay: MIC, serial two-fold agar dilution; assay type: cell-based; settings: nutrient agar
[7] = system: Klebsiella pneumoniae D11; assay: MIC, serial two-fold agar dilution; assay type: cell-based; settings: nutrient agar
[8] = system: Pseudomonas aeruginosa D15; assay: MIC, serial two-fold agar dilution; assay type: cell-based; settings: nutrient agar
[9] = system: Candida albicans IAM 4888; assay: MIC, serial two-fold agar dilution; assay type: cell-based; settings: IAM4888, Sabouraud agar
[10] = system: Cryptococcus neoformans D49; assay: MIC, serial two-fold agar dilution; assay type: cell-based; settings: Sabouraud agar
[11] = system: Aspergillus fumigatus IAM 2530; assay: MIC, serial two-fold agar dilution; assay type: cell-based; settings: IAM2530, Sabouraud agar
[12] = system: Trichophyton mentagrophytes D155; assay: MIC, serial two-fold agar dilution; assay type: cell-based; settings: Sabouraud agar
[13] = system: Bacteroides fragilis; assay: MIC, serial two-fold agar dilution; assay type: cell-based; settings: GAM agar, anaerobe
[14] = system: Clostridium perfringens; assay: microbe, parasite or virus in culture; assay type: cell-based
[15] = system: Propionibacterium acnes; assay: MIC, serial two-fold agar dilution; assay type: cell-based; settings: Cutibacterium acnes; GAM agar, anaerobe
[16] = system: gram-negative bacteria and fungi; assay: antibacterial/antifungal activity (MIC), summary; assay type: cell-based
[17] = system: lymphocytic leukemia P388; settings: qd 1→9
[18] = system: lymphoid leukemia L1210; settings: qd 1→9
[19] = system: melanotic melanoma B16; settings: qd 1→9
[20] = system: melanotic melanoma B16; assay: antitumor activity, B16 melanoma in mice; settings: qd 1→9
[21] = system: lymphocytic leukemia P388; assay: antitumor activity, P388 leukemia in mice; settings: qd 1→9
[22] = system: lymphoid leukemia L1210; assay: antitumor activity, L1210 leukemia in mice; settings: qd 1→9
[23] = system: Clostridium difficile; assay: MIC, serial two-fold agar dilution; assay type: cell-based; settings: Clostridioides difficile; GAM agar, anaerobe
[24] = system: P388, L1210 and B16 tumors; assay: antitumor activity in mice, summary over P388, L1210 and B16; assay type: in vivo, BDF1 mice; settings: experimental mouse tumors
[25] = solubility; assay type: physicochemical; settings: acidic water
[26] = system: aerobic gram-positive bacteria and anaerobic bacteria; assay: antibacterial activity, summary; assay type: cell-based
Source text: Nutrient agar medium was used for gram-positive and gram-negative bacteria, GAM agar medium for anaerobes and Sabouraud agar medium for fungi.

CO[C@H]1[C@@H](O)[C@@H](C)O[C@H](O[C@H]2[C@H](Oc3cccc4c(O)c5c(=O)oc6ccc(C)c7c(=O)oc(c34)c5c67)O[C@H](C)[C@H](O)[C@@H]2O)[C@@H]1O [Chartreusin, reference compound]
MIC [1]: 3.1 µg/mL (≈ 4.84 µM)
MIC [2]: 6.3 µg/mL (≈ 9.83 µM)
MIC [3]: 0.4 µg/mL (≈ 0.624 µM)
MIC [4]: 0.8 µg/mL (≈ 1.25 µM)
MIC [5]: 0.4 µg/mL (≈ 0.624 µM)
MIC [6]: > 100 µg/mL
MIC [7]: > 100 µg/mL
MIC [8]: > 100 µg/mL
MIC [9]: > 100 µg/mL
MIC [10]: > 100 µg/mL
MIC [11]: > 100 µg/mL
MIC [12]: > 100 µg/mL
MIC [13]: 6.3 µg/mL (≈ 9.83 µM)
MIC [14]: 1.6 µg/mL (≈ 2.5 µM)
MIC [15]: 3.1 µg/mL (≈ 4.84 µM)
activity against gram-negative bacteria and fungi [16]: inactive
MST ([17]; 0.1 mg/kg/day ip): 9.0 days
MST ([17]; 0.3 mg/kg/day ip): 10.5 days
MST ([17]; 10 mg/kg/day ip): 19.5 days
MST ([18]; 0.1 mg/kg/day ip): 8.0 days
MST ([18]; 0.3 mg/kg/day ip): 8.0 days
MST ([18]; 1 mg/kg/day ip): 9.0 days
MST ([18]; 3 mg/kg/day ip): 9.0 days
MST ([18]; 10 mg/kg/day ip): 11.5 days
MST ([19]; 0.3 mg/kg/day ip): 14.0 days
MST ([19]; 1 mg/kg/day ip): 16.0 days
MST ([19]; 3 mg/kg/day ip): 20.5 days
MST ([19]; 10 mg/kg/day ip): 25.0 days
Average wt. change on day 5 ([20]; 0.3 mg/kg/day ip): +1.8 g
Survivors on day 5 ([20]; 0.3 mg/kg/day ip): 6/6
Survivors on day 45 ([20]; 0.3 mg/kg/day ip): 0/6
T/C ([20]; 0.3 mg/kg/day ip): 100%
Average wt. change on day 5 ([20]; 1 mg/kg/day ip): +2.3 g
Survivors on day 5 ([20]; 1 mg/kg/day ip): 6/6
T/C ([20]; 1 mg/kg/day ip): 114%
Average wt. change on day 5 ([20]; 3 mg/kg/day ip): +2.3 g
Survivors on day 5 ([20]; 3 mg/kg/day ip): 6/6
Survivors on day 45 ([20]; 3 mg/kg/day ip): 0/6
Average wt. change on day 5 ([20]; 10 mg/kg/day ip): +1.7 g
Survivors on day 5 ([20]; 10 mg/kg/day ip): 6/6
Survivors on day 45 ([20]; 10 mg/kg/day ip): 0/6
Average wt. change on day 5 ([21]; 0.1 mg/kg/day ip): +2.8 g
Survivors on day 5 ([21]; 0.1 mg/kg/day ip): 6/6
Survivors on day 45 ([21]; 0.1 mg/kg/day ip): 0/6
T/C ([21]; 0.1 mg/kg/day ip): 100%
Average wt. change on day 5 ([21]; 0.3 mg/kg/day ip): +2.0 g
Survivors on day 5 ([21]; 0.3 mg/kg/day ip): 6/6
Survivors on day 45 ([21]; 0.3 mg/kg/day ip): 0/6
T/C ([21]; 0.3 mg/kg/day ip): 117%
Average wt. change on day 5 ([21]; 1 mg/kg/day ip): +1.3 g
MST ([21]; 1 mg/kg/day ip): 14.0 days
Survivors on day 5 ([21]; 1 mg/kg/day ip): 6/6
Survivors on day 45 ([21]; 1 mg/kg/day ip): 0/6
Average wt. change on day 5 ([21]; 3 mg/kg/day ip): +1.5 g
MST ([21]; 3 mg/kg/day ip): 15.0 days
Survivors on day 5 ([21]; 3 mg/kg/day ip): 6/6
Survivors on day 45 ([21]; 3 mg/kg/day ip): 0/6
Average wt. change on day 5 ([21]; 10 mg/kg/day ip): +1.3 g
Survivors on day 5 ([21]; 10 mg/kg/day ip): 6/6
Survivors on day 45 ([21]; 10 mg/kg/day ip): 0/6
Average wt. change on day 5 ([22]; 0.1 mg/kg/day ip): +3.1 g
Survivors on day 5 ([22]; 0.1 mg/kg/day ip): 6/6
Survivors on day 45 ([22]; 0.1 mg/kg/day ip): 0/6
T/C ([22]; 0.1 mg/kg/day ip): 100%
Average wt. change on day 5 ([22]; 0.3 mg/kg/day ip): +3.2 g
Survivors on day 5 ([22]; 0.3 mg/kg/day ip): 6/6
Survivors on day 45 ([22]; 0.3 mg/kg/day ip): 0/6
T/C ([22]; 0.3 mg/kg/day ip): 100%
Average wt. change on day 5 ([22]; 1 mg/kg/day ip): +1.9 g
Survivors on day 5 ([22]; 1 mg/kg/day ip): 6/6
Survivors on day 45 ([22]; 1 mg/kg/day ip): 0/6
T/C ([22]; 1 mg/kg/day ip): 113%
Average wt. change on day 5 ([22]; 3 mg/kg/day ip): +1.4 g
Survivors on day 5 ([22]; 3 mg/kg/day ip): 6/6
Survivors on day 45 ([22]; 3 mg/kg/day ip): 0/6
T/C ([22]; 3 mg/kg/day ip): 113%
Average wt. change on day 5 ([22]; 10 mg/kg/day ip): +1.3 g
Survivors on day 5 ([22]; 10 mg/kg/day ip): 6/6
Survivors on day 45 ([22]; 10 mg/kg/day ip): 0/6

Cc1ccc2oc(=O)c3c(O)c4cccc(O[C@@H]5O[C@H](C)[C@H](O)[C@](C)(O)[C@H]5O)c4c4oc(=O)c1c2c34 [BBM-2478B]
MIC [1]: 3.1 µg/mL (≈ 6.27 µM)
MIC [2]: 6.3 µg/mL (≈ 12.7 µM)
MIC [3]: 0.8 µg/mL (≈ 1.62 µM)
MIC [4]: 3.1 µg/mL (≈ 6.27 µM)
MIC [5]: 1.6 µg/mL (≈ 3.24 µM)
MIC [6]: > 100 µg/mL
MIC [7]: > 100 µg/mL
MIC [8]: > 100 µg/mL
MIC [9]: > 100 µg/mL
MIC [10]: > 100 µg/mL
MIC [11]: > 100 µg/mL
MIC [12]: > 100 µg/mL
MIC [23]: 25 µg/mL (≈ 50.6 µM)
activity against gram-negative bacteria and fungi [16]: inactive
antitumor activity [24]: devoid of antitumor activity
solubility in acidic water [25]: insoluble
antibacterial activity [26]: potent antibacterial activity
